Measurements taken from EP3818828A1 (priority 2019, dated 2021).

Legend:
[1] = tested on: Fusarium graminearum; test: microbe, parasite or virus in culture; format: cell-based; settings: for Average Diameter of the Colony: 1 mg/mL; for inhibition at 1000 µg/mL: read-out: Inhibition Rate
[2] = tested on: zucchini powdery mildew; test: Field efficiency test, zucchini powdery mildew; format: in vivo; settings: 0.50 mg/mL (active ingredients)
Source text: (§1) The formulation of emulsifiable concentrate is the same as that in Embodiment 3.
(§2) The variety of zucchini was Zaoqing F1 (manufactured by Wuwei Dadi Seed Industry Co., Ltd.), which was sown on July 29th, 2016. The first application was started on August 26th, at the early onset of powdery mildew (the average disease index is 10.07). The instrument for application was Agrolex HD 400 Model hand operating knapsack sprayer, which employed a cone nozzle. Each agent was formulated into the desired concentrations according to the usage amount of the control clear water. Both sides of the leaves were sprayed evenly so that the leaves were wetted by the liquor without loss. 10% of 3-(3',4'-methylenedioxy phenyl)-N-n-propyl acrylamide EC and 14% of 3-(3',4'-methylenedioxy phenyl)-piperidine acrylate EC were both diluted at a concentration of 0.50 mg/mL (active ingredients); the control agent, 430 g/L of tebuconazole SC (manufactured by Yantai Keda Chemical Co., Ltd.) was also diluted at a concentration of 0.50 mg/mL (active ingredients); additionally clear water was used as the control. Thereafter, applications were conducted every 7 days consecutively for 4 times. 10 days after the last application, the number of sick leaves at each grade of powdery mildew was investigated for the whole plant following the grading standard of 9 grades, to calculate the disease index and the control effect.

[3] = tested on: E. cichoracearum; test: Field efficiency test, cucumber powdery mildew; format: in vivo; settings: 0.50 mg/mL (active ingredients)
Description: as §1
10% of 3-(3',4'-methylenedioxy phenyl)-N-n-propyl acrylamide EC and 14% of 3-(3',4'-methylenedioxy phenyl)-piperidine acrylate EC were diluted at a concentration of 0.50 mg/mL (2000 fold liquid of active ingredients); the control agent, 10% of dimethomorph EW, was also diluted at a concentration of 0.50 mg/mL (2000 fold liquid of active ingredients); the control agent, 80% of mancozeb WP, was diluted at a concentration into a 500 fold liquid according to the usage amount of the formulation; the control agents, 12.5% of myclobutanil EC, 25% of propiconazole EC, 430 g/L of tebuconazole SC, 10% of hexaconazole EC and 37% of difenoconazole EC were all diluted at a concentration into 1500 fold liquids according to the usage amount of the formulation; additionally clear water was used as the control. The first application was started on June 15th, and E. cichoracearum was inoculated on June 17th (the sick leaves were harvested from the solar greenhouse near the military airfield at Xiaguanying town, Yuzhong County, moisturized in the greenhouse for 2 days, then shreded, and filtered over a gauze, the filtrate was sprayed onto both sides of the cucumber leaves with the cone nozzle of an electric sprayer for inoculation). […]

[4] = tested on: E. polygoni; test: In-vivo greenhouse control of marrow bean powdery mildew
Description: 3.88 g of 3-(3',4'-methylenedioxy phenyl)-N-n-propyl acrylamide was weighed and dissolved in 25 g of absolute ethyl alcohol, then 6 g of emulsifier 0203B was added, and mixed uniformly with stirring to get 10% of 3-(3',4'-methylenedioxy phenyl)-N-n-propyl acrylamide EC.
5.61 g of 3-(3',4'-methylenedioxy phenyl)-piperidine acrylate was weighed and dissolved in 25 g of absolute ethyl alcohol, then 6 g of emulsifier 0203B was added, and mixed uniformly with stirring to get 14% of 3-(3',4'-methylenedioxy phenyl)-piperidine acrylate EC.
Marrow bean (Variety: Thailand Jiadouwang) was cultured in pots in a greenhouse, and inoculated with E. polygoni at the stage of 4 leaves. The first application was started at the early onset (onset at the first true leaf: first appearance of spots), comprising 10% of 3-(3',4'-methylenedioxy phenyl)-N-n-propyl acrylamide EC and 14% of 3-(3',4'-methylenedioxy phenyl)-piperidine acrylate EC, which were both diluted at three concentrations of 0.20, 0.143, 0.10 mg/mL (active ingredients), the control agent, 12.5% of myclobutanil EC (North China pharmaceutical Group, Ainuo Co. Ltd.), was also diluted at three concentrations of 0.20, 0.143, 0.10 mg/mL (active ingredients), additionally clear water was used as the control. Both sides of the leaves were sprayed evenly with a small hand-held sprayer so that the leaves were wetted by the liquor without loss. Applications were conducted every 7 days consecutively for 4 times. 10 days after the fourth application, the number of sick leaves at each grade of powdery mildew was investigated for the whole plant following the grading standard of 9 grades, to calculate the disease index and the control effect.

[5] = tested on: zucchini, cucumber, flax, and tomato; test: Crop safety in the field efficiency tests; format: in vivo; settings: at the test doses
Source text: as §2
The variety of flax is Zhangya No. 2. […]

[6] = 0.10 mg/mL (active ingredients)
[7] = 0.143 mg/mL (active ingredients)
[8] = 0.20 mg/mL (active ingredients)

Row | SMILES | Average Diameter of the Colony [1] [cm] | inhibition at 1000 µg/mL [1] [%] | Control Effect [2] [%] | Control Effect [3] [%] | Control Effect [4, 6] [%] | Control Effect [4, 7] [%] | Control Effect [4, 8] [%] | safety for zucchini, cucumber, flax, and tomato [5]
1 | CCCNC(=O)/C=C/c1ccc2c(c1)OCO2 [3-(3',4'-methylenedioxyphenyl)-N-n-propyl acrylamide] | 2.27 | 57.6 | 60.24 | 88.38 | 84.19 | 92.58 | 93.53 | safe for zucchini, cucumber, flax, and tomato
2 | O=C(/C=C/c1ccc2c(c1)OCO2)N1CCCCC1 [3-(3',4'-methylenedioxyphenyl)-piperidine acrylate] | 0.53 | 90.1 | 30.04 | 69.84 | 74.97 | 89.40 | 91.55 | safe for zucchini, cucumber, flax, and tomato
